{"source": "patent US9580428B2", "about": "“Compositions and methods for inhibiting viral polymerase” (priority 2012, dated 2017)", "tested_on": "A/NJ/15/2007 (H1N1 - H274Y)", "type": "cell-based, influenza A virus", "data": [{"smiles": "Cl.Cl.Nc1ncnc2c([C@@H]3N[C@H](CO)[C@@H](O)[C@H]3O)c[nH]c12", "note": "[compound 12i, (2S,3S,4R,5R)-2-(4-amino-5H-pyrrolo[3,2-d]pyrimidin-7-yl)-5-(hydroxymethyl)pyrrolidine-3,4-diol dihydrochloride]", "values": [{"measurement": "EC50", "result": 1.39, "unit": "µg/mL"}]}]}
